Laboratory results reported in article PMC2972222, “Breast Cancer Stem-Like Cells Are Inhibited by a Non-Toxic Aryl Hydrocarbon Receptor Agonist” (PLoS ONE, 2010).

Assays:
[1] = target: T1, aryl hydrocarbon receptor (AHR) (Mus musculus, UniProt P30561); experiment: competition radioligand binding, unlabeled 3-MC versus [3-H]-3-MC on antibody-immobilized AHR
T1 construct: native AHR from mouse liver cytosol, immobilized on plate with anti-AHR antibody
T1 sequence (P30561 10-848): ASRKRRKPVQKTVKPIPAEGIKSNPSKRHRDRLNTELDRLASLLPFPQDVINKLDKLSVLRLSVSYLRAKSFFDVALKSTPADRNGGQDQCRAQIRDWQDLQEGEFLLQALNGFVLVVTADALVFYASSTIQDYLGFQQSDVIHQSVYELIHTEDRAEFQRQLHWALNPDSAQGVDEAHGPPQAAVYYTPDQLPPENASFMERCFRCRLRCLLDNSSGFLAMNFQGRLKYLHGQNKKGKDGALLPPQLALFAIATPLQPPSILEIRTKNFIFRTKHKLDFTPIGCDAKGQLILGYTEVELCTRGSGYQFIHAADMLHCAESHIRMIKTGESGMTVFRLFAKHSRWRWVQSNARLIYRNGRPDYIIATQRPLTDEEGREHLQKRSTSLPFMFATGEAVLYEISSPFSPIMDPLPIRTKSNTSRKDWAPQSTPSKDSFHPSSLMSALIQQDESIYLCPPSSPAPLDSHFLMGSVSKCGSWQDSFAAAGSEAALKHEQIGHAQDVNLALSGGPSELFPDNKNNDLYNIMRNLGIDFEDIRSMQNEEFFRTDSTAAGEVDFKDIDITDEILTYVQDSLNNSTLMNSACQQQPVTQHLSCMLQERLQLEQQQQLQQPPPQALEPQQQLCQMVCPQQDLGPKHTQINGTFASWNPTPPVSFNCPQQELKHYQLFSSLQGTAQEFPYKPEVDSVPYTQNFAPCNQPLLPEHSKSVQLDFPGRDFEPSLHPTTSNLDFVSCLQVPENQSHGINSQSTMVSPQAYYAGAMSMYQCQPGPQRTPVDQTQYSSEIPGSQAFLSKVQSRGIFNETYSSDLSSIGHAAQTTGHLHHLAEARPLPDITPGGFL
From the text: competition radioligand binding, unlabeled 3-MC versus [3-H]-3-MC on antibody-immobilized AHR on aryl hydrocarbon receptor (AHR) | Competition of tranilast or unlabeled 3-MC with [3-H]-3-MC for binding to plate-immobilized AHR from mouse liver cytosol

[2] = target: T1, aryl hydrocarbon receptor (AHR); experiment: competition radioligand binding with [3-H]-3-MC on antibody-immobilized AHR

| Ki [2] | Structure (SMILES) | Ki [1] |
| --- | --- | --- |
|  | Cc1ccc2cc3c(ccc4ccccc43)c3c2c1CC3 [3-methylcholanthrene] | 0.035 µM |
| 44 µM | COc1ccc(/C=C/C(=O)Nc2ccccc2C(=O)O)cc1OC [tranilast, N-[3,4-dimethoxycinnamoyl]anthranilic acid] |  |
